Values of other authors, collected in US9915714B2, “MSC-SELMQC method for simultaneous mapping of polyunsaturated fatty acids, lactate and choline in high fat tissues” (University of Pittsburgh—Of the Commonwealth System of …, priority 2007, dated 2018).

Tested on: RIF-1 tumors
Conditions: following therapeutic intervention, 300 mg/kg; correlates with increases in tumor perfusion and permeability (Gd-DTPA uptake curves)

For `O=P1(N(CCCl)CCCl)NCCCO1` (stereo not shown) [cyclophosphamide], the “lactate levels in RIF-1 tumors” value is listed as “decrease”.
